Measurements taken from US20150374646A1, “TREATMENT OF CANCER AND OTHER CONDITIONS USING A TRANSCRIPTION FACTOR MODULATOR” (C & C BIOPHARMA, LLC, priority 2013, published 2015).

Legend:
K562 cells = experiment: Subcutaneous K562 (CML) tumor growth in SCID mice (Example 6); type: in vivo; details: Imatinib 100 mg/kg p.o. × 16 days, SCID mice, K562 tumor
Experimental: Male Severe Combined Immunodeficiency (SCID) mice that were 4-6 weeks old were used in the experiment. The mice were fed under specific pathogen free (SPF) conditions. Food and water were available to the mice at will. A suspension of 8×10^6 chronic myelogenous leukemia K562 cells (0.2 mL) was inoculated subcutaneously into the right back of the SCID mice.
The general conditions of the mice and the growth of the transplanted tumor were monitored. […] The control group received an intraperitoneal injection (IP) of 0.2 mL solvent (20% DMSO, 80% of 20% w/v (2-hydroxypropyl)-β-cyclodextrin made in PBS). […] The YT30 treated groups received either intraperitoneal injection of 50 mg/kg/day of YT30 (0.2 mL in volume) suspended in solvent (20% DMSO, 80% of 20% w/v (2-hydroxypropyl)-β-cyclodextrin made in PBS) or oral gavage of 90 mg/kg/day YT30 in solvent (Cremophor RH40:TW80:PEG400 (2:1:1)). Frequency of the administration was once per day and the experiment lasted 16 days after initiation of the treatment.
The body weights of the mice were recorded prior to the start of treatment and twice every week thereafter. Each mouse of every group was monitored daily for any other symptoms of side effects including change in behavior, activity or posture, areas of redness and swelling, and food and water withdrawal. Caliper measurements of the longest perpendicular tumor diameters were performed every 2 days to estimate the tumor volume; the following formula: 4π/3×(width/2)^2×(length/2) was used to calculate the three-dimensional volume of an ellipse. The tumor inhibition rate was calculated according to tumor volume: Tumor inhibition rate by size (%)=(Tumor volume of the control group−Tumor volume of the treated group)/Tumor volume of the control group×100. The SCID mice were euthanized 2 hours after the final injection and the subcutaneous tumor nodules were taken out intact and weighed. The tumor inhibition rate was calculated again according to tumor weight: Tumor inhibition rate by weight (%)=(Tumor weight of the control group−Tumor weight of the treated group)/Tumor weight of the control group×100.

Nalm-6 [1] = experiment: cells; details: Homo sapiens, NALM-6, 72 h, read-out: 72 hr growth inhibition (%)
Experimental: (§1) Various human leukemia cells were grown to the logarithmic growth phase and seeded into 24-well plates. […] Treated cells were further incubated for 72 hours and then were examined for cell proliferation. Cell proliferation was determined using the CellTiter-Glo Luminescence Cell Viability assay (Promega Corporation, Madison, Wis.) according to the manufacturer's protocol. The calculated inhibition rate was determined with the following formula: Inhibition rate (%)=(1−Luminescence of experimental group/Luminescence of control group)×100. IC50 is the calculated concentration of a compound needed to inhibit half of the maximum cell growth (equivalent to cell growth in control group) based on the corresponding dose-response curve under the described experimental conditions.
Growth inhibition experiments were performed as previously described.

MV4-11 cells = experiment: Subcutaneous MV4-11 leukemia tumor growth in NOD/SCID mice (Example 5); type: in vivo; details: 100 mg/kg p.o. × 27 days
Experimental: Female Nonobese Diabetic/Severe Combined Immunodeficiency (NOD/SCID) mice that were 4-6 weeks old were used in the experiment. The mice were fed under specific pathogen free (SPF) conditions. Food and water were available to the mice at will. A suspension of 1×10^7 cells per mouse B-myelomonocytic leukemia MV4-11 cells (0.2 mL) in logarithmic phase were inoculated subcutaneously into the right back of the NOD/SCID nude mice.
The general conditions of the mice and the growth of the transplanted tumor were monitored. […] The control group received an intraperitoneal (IP) injection of 0.2 mL of solvent (20% DMSO, 80% of 20% w/v (2-hydroxypropyl)-β-cyclodextrin made in PBS). […] The high dosage group received an intraperitoneal injection of 50 mg/kg/day of YT30 (0.2 mL in volume) suspended in solvent (20% DMSO, 80% of 20% w/v (2-hydroxypropyl)-β-cyclodextrin made in PBS), while the low dosage group received IP injection of 25 mg/kg/day YT30 (0.2 mL in volume). Frequency of the administration was once per day and the experiment lasted 27 days after treatment started.
The body weights of the mice were recorded prior to the start of treatment and twice every week thereafter. Each mouse of every group was monitored daily for any other symptoms of side effects including change in behavior, activity or posture, areas of redness and swelling, and food and water withdrawal. Caliper measurements of the longest perpendicular tumor diameters were performed every 2 days to estimate the tumor volume; the following formula: 4π/3×(width/2)^2×(length/2) was used to calculate the three-dimensional volume of an ellipse. The tumor inhibition rate was calculated according to tumor volume: Tumor inhibition rate by size (%)=(Tumor volume of the control group−Tumor volume of the treated group)/Tumor volume of the control group×100. The mice were euthanized on the next day after the final injection and the subcutaneous tumor nodules were taken out intact and weighed. The tumor inhibition rate was calculated again according to tumor weight: Tumor inhibition rate by weight (%)=(Tumor weight of the control group−Tumor weight of the treated group)/Tumor weight of the control group×100).

Nalm-6 [2] = experiment: Leukemia cell growth inhibition, CellTiter-Glo (Example 1); type: cell-based, human; details: Nalm-6 cells, 4 μM
Experimental: as §1

HL60 = experiment: as above; type: cell-based, human; details: HL60 cells, 4 μM
Experimental: as §1

REH = experiment: as above; type: cell-based, human; details: REH cells, 4 μM
Experimental: as §1

Cc1ccc(NC(=O)c2ccc(CN3CCN(C)CC3)cc2)cc1Nc1nccc(-c2cccnc2)n1 [Imatinib, imatinib, reference compound]
Body weight change (K562 cells): −3.26% | Tumor growth inhibition by size (K562 cells): 43.97% | Tumor growth inhibition by weight (K562 cells): 27.91% | Average body weight, End point (K562 cells; end point, x ± s): 18.37 ± 0.54 g | Average body weight, Initial (K562 cells; initial (before treatment), x ± s): 18.99 ± 1.23 g | Tumor size (K562 cells; x ± s): 1744.05 ± 1049.95 mm^3 | inhibition at 5 µM (Nalm-6 [1]): 0% | inhibition at 10 µM (Nalm-6 [1]): 44% | Average body weight (g, x ± s) End point (MV4-11 cells): 22.06 ± 1.74 g | Body weight change (%) (MV4-11 cells): −1.0% | Tumor growth Inhibition by size (%) (MV4-11 cells): 52.5% | Tumor growth Inhibition by weight (%) (MV4-11 cells): 41.7% | Tumor size (mm^3) (MV4-11 cells): 1040.51 ± 422.38 mm^3 | Tumor weight (g, x ± s) (MV4-11 cells): 1.29 ± 0.42 g

Nc1ccccc1NC(=O)Cc1cccc(CC(=O)Nc2ccccc2N)c1 [YT19]
Growth inhibition (FIG. 1) (Nalm-6 [2]): failed to inhibit cell growth | Growth inhibition (FIG. 1) (HL60): failed to inhibit cell growth | Growth inhibition (FIG. 1) (REH): failed to inhibit cell growth
